The values below come from patent EP0190597A2, “Retro-inverso analogs of the bradykinin potentiating peptide bpp 5a” (SCLAVO S.p.A., priority 1985, dated 1986).

The target in the experiment is angiotensin converting enzyme. As to the kind of experiment: Inhibition of angiotensin converting enzyme (method of Cushman and Cheung). It is filed as biochemical, rabbit. Particulars: in vitro; ratio of IC50 versus BPP5a or Glp-Lys-Phe-Ala-Pro-OH. An excerpt:
In particular, comparative experiments carried out […] in order to evaluate the ACE inhibitory activity of the compounds of the present invention gave the results reported in following table I (IC50 represents the concentration of the test compound, in µM, which inhibits the angiotensin converting enzyme by 50%. The enzyme employed in this test has been isolated from rabbit lungs according to the method by Cushman and Cheung described in Biochem. Pharmacol. 2Q, 1637, (1971)).

Regarding Glp--Lys-gPhe-mAla-Pro-OH, the “IC50 times higher than that of the natural product (BPPSa) or the corresponding uninverted peptide Glp-Lys-Phe-Ala-Pro-OH” value is on record as “more than 1000 times”.
